Measured values reported in patent US20060134022A1, “Salivary stimulatory compositions and method of use thereof” (priority 2004, published 2006).

Assay: Self warming mouthwash temperature increase vs. sulfite concentration on mixing sulfite phase with peroxide phase
Format: physicochemical
Settings: approximate (plus/minus 2 degrees)
Text: The saliva stimulation effectiveness of the solution depends on raising its temperature before use. This may be done by conventional external heating means. Alternatively the sulfate, bisulfate or pyrosulfate may be produced in situ by utilizing a solution of the corresponding sulfite, bisulfite or metabisulfite and adding a solution of an orally acceptable peroxide thereto. The resulting reaction produces excess heat, thus raising the solution temperature. While the amount of peroxide added is not critical, it is desirable to use at least an amount substantially equivalent to the stoichiometric amount need to oxidize the salts in their reduced forms to the higher oxidation state.
Note: Temperatures are in Fahrenheit Degrees and are approximate (plus/minus 2 degrees).
Sulfite Concentrations listed below are final concentration in the mouthwash. Since the final mouthwash is formed from equal amounts of 2 separate phases, the sulfite concentration in the sulfite containing phase is double that in the final mouthwash.
Combine equal amounts of Phase A and Phase B, Just prior to use, to form the final mouth rinse

[1] = 1% final concentration in the mouthwash
[2] = 2% final concentration in the mouthwash
[3] = 4% final concentration in the mouthwash

| SMILES | Final Temp. [1] [Fahrenheit Degrees] | Temp. Increase [1] [Fahrenheit Degrees] | Final Temp. [2] [Fahrenheit Degrees] | Temp. Increase [2] [Fahrenheit Degrees] | Final Temp. [3] [Fahrenheit Degrees] | Temp. Increase [3] [Fahrenheit Degrees] |
| --- | --- | --- | --- | --- | --- | --- |
| O=S([O-])S(=O)(=O)[O-].[Na+].[Na+] [Sodium Metabisulfite] | 97.3 | 12.1 | 113.2 | 27.2 | 142.0 | 55.9 |
| O=S([O-])[O-].[Na+].[Na+] [Sodium Sulfite] | 98.1 | 10.2 | 110.7 | 21.4 | 133.5 | 43.0 |
